Results reported in article PMC7711817, “Quantitative, High-Throughput Assays for Proteolytic Degradation of Amylin” (Methods and Protocols, 2020).
“Also recorded” adds a separate entry of the source. Like-named read-outs stand apart in the source and are kept apart here. Where no end group is shown, it is not given here.

Columns and labels:
[1] = system: insulin-degrading enzyme (IDE); conditions: cited from earlier work
Excerpt: Amylin is a 37-residue peptide with a highly conserved sequence that is present in all mammals. To be fully active, two major post-translational modifications are required: a C-terminal amide (Tyr37) and a disulfide bond between two cysteine residues found at positions 2 and 7 [6]. […] As is true for other amyloidogenic substrates, such as the amyloid β-protein (Aβ), it is likely that multiple amylin proteases exist that work in ... || We also developed a FRET-based fluorescence dequenching assay, which was successful in many respects, but about which some caution is warranted. First, the particular placement of the fluorescing EDANS and quenching DABCYL groups was designed to be optimal for a known cleavage site hydrolyzed by IDE [26]. This particular placement may not be ideal for other amylin proteases, depending on where they cleave the peptide. Secondly, whereas the FrAB-based AP and FP protocols both yielded kinetic parameters close to one another and also similar in magnitude to those obtained for other IDE substrat ...

[2] = system: beta-site APP-cleaving enzyme 2 (BACE2); conditions: cited from earlier work
Excerpt: Amylin is a 37-residue peptide with a highly conserved sequence that is present in all mammals. To be fully active, two major post-translational modifications are required: a C-terminal amide (Tyr37) and a disulfide bond between two cysteine residues found at positions 2 and 7 [6]. […] As is true for other amyloidogenic substrates, such as the amyloid β-protein (Aβ), it is likely that multiple amylin proteases exist that work in ...

[3] = Effect of avidin concentration on FP (mP) of FrAB; assay type: binding
Excerpt: To assess the suitability of FrAB to the FP protocol, we measured the degree of depolarization (measured in millipolarization units, mP) in uncleaved versus fully cleaved substrate in the absence or presence of excess avidin. […] Not only was substantially less depolarization observed with the intact substrate alone, but the depolarization was reduced even further by the addition of avidin (Figure 1g). As expected from the preceding results, hydrolysis of FrAB as a function of time could be readily monitored using the FP protocol (Figure 1h).
Avidin (and avidin-agarose) is an expensive reagent, and thus it is valuable to establish the minimum avidin/FrAB ratio necessary for reliable results. To that end, we added varying amounts of avidin to a fixed quantity (100 nM) of both cleaved and uncleaved FrAB and assessed the results using the FP protocol. […] Accordingly, we recommend that a minimum avidin/FrAB ratio of ≈10:1 be used in practice.

[4] = cited from earlier work
Excerpt: Amylin, also known as islet amyloid polypeptide, is a peptide hormone that is stored in pancreatic beta-cells and co-secreted with insulin in response to many factors, including glucose, arginine, and fatty acids. Amylin plays a role in inhibiting glucagon secretion and delaying gastric emptying as well as modulating other aspects of food processing and satiety.

recombinant human IDE [5] = target: T1, recombinant human IDE (Homo sapiens, UniProt P14735); conditions: FrAB substrate, FP protocol (corrected), 1 nM IDE; mean ± SEM of four independent replications
Experimental: For fluorescence polarization (FP)-based assays, reactions were typically performed directly in low-volume 384-well microplates. To that end, 3× IDE solution (8 µL) was combined with 3× compound or DMSO (8 µL) and allowed to equilibrate for ≥5 min at room temperature. Reactions were initiated by addition of 3× FrAB substrate (8 µL), typically at 100 nM final concentration, except where indicated. After the appropriate incubation period, reactions were terminated by addition of 4× FP Stop Buffer (8 µL; PBS/0.05% biotin-free BSA containing a final concentration of 2 mM 1,10-phenanthroline and 10-fold molar excess avidin (monomer)), triturated ≥3 times to ensure even mixing. […] Fluorescence polarization (λex = 485 nm, λem = 515 nm) was read on a multilabel plate reader (SpectraMAX M5^e, Molecular Devices, San Jose, CA, USA) using the default fluorescence polarization protocol, with the g-factor value maintained at 1.0. high-throughput screening (HTS) being performed manually using a 16-channel pipettor.
(§1) For all assays, results were normalized to data from negative (0% hydrolysis, no IDE) and positive (100% hydrolysis, excess IDE) controls and, where appropriate, expressed as percent hydrolysis. In the case of AP-based assays, percent hydrolysis was a linear function of the percent maximal change in relative fluorescence (RFU; %ΔRFU) between positive and negative controls. […]

recombinant human IDE [6] = target: T1, recombinant human IDE; conditions: FrAB substrate, AP protocol, 1 nM IDE; mean ± SEM of four independent replications
Experimental: The specific activity of recombinant IDE was verified to be within 5% of the value determined from protein concentration (quantified by nanodrop).
To ensure homogeneity of solution concentrations, we mixed all solutions well by gentle rocking on a nutator for ≥10 min at room temp (21–23 °C), and dispensed them manually using 16-channel pipettors fitted with 20-µL FinnTip pipette tips. For experiments conducted in 384-well plates, or transfers thereto, mixing was performed by ≥3 rounds of trituration after dispensing of the final solution. […] After we carefully removed the tubes from the centrifuge to avoid disturbing the pelleted avidin-agarose, the supernatant was transferred to low-volume 384-well microplates (30 µL/well), then fluorescence (λex = 485 nm, λem = 515 nm) was read on a multilabel plate reader (SpectraMAX, Molecular Devices, San Jose, CA, USA).
as §1

avidin-agarose = test: Avidin-agarose precipitation of fluoresceinated and biotinylated amylin substrates; assay type: binding; conditions: for precipitation by / binding to avidin(-agarose) of uncleaved substrate: uncleaved substrate (- IDE), 1 μM, fluorescence read-out
Excerpt: In previous work, we developed robust proteolytic degradation assays for Aβ [18] and glucagon on the basis of synthetic versions of these substrates containing fluorescein at the N‑terminus and biotin (in the form of Lys(Ahx-biotin)) at the C-terminus. This general approach enables a facile method for detecting hydrolysis, which we call avidin-agarose precipitation (AP). Briefly, hydrolysis can be readily quantified by removing the intact (biotinylated and fluoresceinated) substrates with avidin-agarose, then quantifying the remaining (fluoresceinated only) proteolytic fragments by fluorescence. This approach has the advantage of being readily implementable in any laboratory equipped with a fluorescence reader. Although convenient, the AP protocol requires centrifugation and liquid transfer steps that make it less amenable to high-throughput or robotized applications (Figure 1a).
Because the C-terminal portion of human amylin is the most aggregation-prone region of the peptide, we hypothesized that strong secondary structure in this area may have rendered the biotin moiety inaccessible to productive interactions with avidin. […] In one version, substrate 2 (Figure 1c; Table 1), we swapped the positions of the fluorescein and biotin groups, while in the other, substrate 3 (Figure 1d; Table 1), we maintained their placement at the N‑ and C-termini, respectively. […] On the basis of these preliminary results, we elected to use substrate 3 for downstream assay development, renaming it FrAB (fluorescein-rodent amylin-biotin). As expected, hydrolysis of FrAB could be readily monitored using the AP protocol, with hydrolysis resulting in a steady increase in fluorescence signal as a function of time in the presence of low quantities of IDE (Figure 1e).

recombinant human IDE [7] = target: T1, recombinant human IDE; test: Fluorescence change on full cleavage by IDE; assay type: biochemical; set-up: made in house; conditions: complete hydrolysis by excess IDE, 1 μM substrate, before avidin-agarose precipitation
Experimental: Substrates were dissolved in DMSO as 1 mM stocks as calculated from the manufacturer-provided weight of lyophylized peptide and its MW, taking into account purity levels. […] The specific activity of recombinant IDE was verified to be within 5% of the value determined from protein concentration (quantified by nanodrop).
For fluorescence-dequenching assays, reactions were typically performed directly in low-volume 384-well microplates, and because the measurements could be monitored continuously, there was no need to stop the reactions. To that end, 3× IDE solution (10 µL) was combined with 3× compound or DMSO (10 µL) and allowed to equilibrate for ≥5 min at room temperature. Reactions were initiated by addition of 3× FrAB substrate (10 µL), typically at 100 nM final concentration. Fluorescence (λex = 336 nm, λem = 490 nm) was monitored repeatedly at frequent intervals (e.g., 30 s) on a multilabel plate reader (SpectraMAX, Molecular Devices, San Jose, CA, USA) using the default fluorescence measurement protocol.

For “glucagon: peptide hormone relevant to glucose homeostasis”, the “degradation by IDE” value [1] is given as “IDE also degrades”.
For “insulin: peptide hormone relevant to glucose homeostasis”, the “degradation by IDE” value [1] is given as “IDE also degrades”.
In the case of “amylin: 37-residue pancreatic peptide hormone, also known as islet amyloid polypeptide (KCNTATCATQRLANFLVHSSNNFGAILSSTNVGSNTY; not fully specified (C-terminus, bridges); cysteine pairing not given here; UniProt P10997 34-70, looked up)”, the “hydrolysis by IDE” value [1] is given as “can be hydrolyzed” and the “hydrolysis by BACE2” value [2] is given as “can be hydrolyzed”.
With “avidin: avidin, a 64-kDa tetramer; egg white avidin [reference compound]” the EC50 ([3]; avidin (monomer) concentration, uncleaved FrAB 100 nM, FP, n = 4 (mean ± SEM), read-out: apparent EC50 of avidin for increase in mP) was 33.5 ± 7.5 nM and the “avidin concentration at which increase in mP values reaches a plateau” value ([3]; avidin (monomer), 100 nM FrAB, FP protocol) was “≈ 1 µM”.
In the case of “rodent amylin: rodent amylin, far less prone to aggregation than the human peptide”, the aggregation propensity ([4]; rodent amylin vs. human peptide) is listed as “far less prone to aggregation and secondary structure formation than the human peptide”.
In the case of “human amylin: aggregation-prone human form of amylin (KCNTATCATQRLANFLVHSSNNFGAILSSTNVGSNTY; not fully specified (C-terminus, bridges); cysteine pairing not given here; UniProt P10997 34-70, looked up)”, the aggregation propensity ([4]; human amylin) is listed as “highly aggregation-prone”.
With fluorescein-rodent amylin-biotin [FrAB] the kcat/KM (recombinant human IDE [5]) was “≈ 1 × 10^7 M^-1 s^-1”, the kcat/KM (recombinant human IDE [6]) was “≈ 1 × 10^7 M^-1 s^-1” and the “fluorescence of fully cleaved substrate after avidin-agarose precipitation” value (avidin-agarose; fully cleaved by IDE, 1 μM substrate, listed as substrate 3) was “remained constant before and after AP; also recorded: strong fluorescence signal after precipitation”. The “precipitation by / binding to avidin(-agarose) of uncleaved substrate” value (shortened to “precipitation by / binding”) (avidin-agarose; listed as substrate 3) was “readily precipitated by avidin-agarose”, the “depolarization of light by fully cleaved substrate” value ([3]; FrAB 1 μM, fully hydrolyzed (+ IDE) vs. uncleaved, FP) was “significantly more than uncleaved substrate” and the “effect of avidin on mP of fully cleaved substrate” value ([3]; fully cleaved FrAB, 100 nM, FP protocol) was “unaffected by avidin; also recorded: unaffected even by very high concentrations of avidin”.
In the case of “[5-FAM]KCNTATCATQRLANFLVHSSNNFGAILSSTNVGSNTY[Lys(Ahx-biotin)]-amide (disulfide) (5-FAM N-term, Lys(Ahx-biotin) C-term amide, disulfide) [Substrate 1]”, the “fluorescence increase relative to uncleaved substrate (in words)” value (recombinant human IDE [7]) is reported as “modest increase in fluorescence”, the “precipitation by / binding” value (avidin-agarose) is reported as “biotin does not bind to avidin” and the “precipitation by / binding” value (avidin-agarose; listed as substrate 1) is reported as “could not be precipitated by avidin-agarose”.
